Reference: ChEMBL document CHEMBL4477252, “Optimization of microtubule affinity regulating kinase (MARK) inhibitors with improved physical properties” (Bioorg Med Chem Lett, 2016)

Tests used:
[1] = target: T1, MAP/microtubule affinity-regulating kinase 4 (Mus musculus, UniProt Q8CIP4); assay: Inhibition of MARK4 in mouse cortical neurons assessed as inhibition of okadaic acid-induced tau phosphorylation at S262 residue preincubated for 15 mins followed okadaic acid challenge for 1.5 hrs by immunostaining method
T1 sequence (Q8CIP4 whole entry): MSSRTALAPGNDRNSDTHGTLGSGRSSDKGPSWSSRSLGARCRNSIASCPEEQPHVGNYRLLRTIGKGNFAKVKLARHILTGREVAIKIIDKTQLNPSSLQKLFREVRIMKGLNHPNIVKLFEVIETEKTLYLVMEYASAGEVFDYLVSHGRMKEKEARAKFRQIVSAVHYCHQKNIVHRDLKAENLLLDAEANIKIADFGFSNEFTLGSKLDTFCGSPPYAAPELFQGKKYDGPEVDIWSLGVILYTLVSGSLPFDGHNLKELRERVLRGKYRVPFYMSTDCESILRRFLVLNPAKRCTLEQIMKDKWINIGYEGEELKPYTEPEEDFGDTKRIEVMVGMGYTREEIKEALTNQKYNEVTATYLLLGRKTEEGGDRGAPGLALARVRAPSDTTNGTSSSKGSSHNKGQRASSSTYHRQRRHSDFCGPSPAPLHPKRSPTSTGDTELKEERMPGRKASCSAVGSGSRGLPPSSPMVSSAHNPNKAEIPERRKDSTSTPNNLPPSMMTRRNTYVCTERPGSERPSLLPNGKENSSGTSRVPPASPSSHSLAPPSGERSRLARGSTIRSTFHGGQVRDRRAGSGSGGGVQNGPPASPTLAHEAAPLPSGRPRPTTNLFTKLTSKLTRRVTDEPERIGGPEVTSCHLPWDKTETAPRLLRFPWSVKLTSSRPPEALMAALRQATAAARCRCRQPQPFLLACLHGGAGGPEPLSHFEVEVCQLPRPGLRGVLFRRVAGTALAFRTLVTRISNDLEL

[2] = Volume of distribution in Sprague-Dawley rat at 1 mL/kg, iv administered through catheter or 5 mL/kg administered through gastric gavage measured after 24 hrs by LC-MS/MS analysis; format: ADME, organism-based; details: in vivo
[3] = target: T2, Cytoplasmic tyrosine-protein kinase BMX (Homo sapiens, UniProt P51813); assay: Inhibition of full-length recombinant human His-tagged BMX expressed in baculovirus expression system by Z'-LYTE assay
T2 sequence (P51813 whole entry): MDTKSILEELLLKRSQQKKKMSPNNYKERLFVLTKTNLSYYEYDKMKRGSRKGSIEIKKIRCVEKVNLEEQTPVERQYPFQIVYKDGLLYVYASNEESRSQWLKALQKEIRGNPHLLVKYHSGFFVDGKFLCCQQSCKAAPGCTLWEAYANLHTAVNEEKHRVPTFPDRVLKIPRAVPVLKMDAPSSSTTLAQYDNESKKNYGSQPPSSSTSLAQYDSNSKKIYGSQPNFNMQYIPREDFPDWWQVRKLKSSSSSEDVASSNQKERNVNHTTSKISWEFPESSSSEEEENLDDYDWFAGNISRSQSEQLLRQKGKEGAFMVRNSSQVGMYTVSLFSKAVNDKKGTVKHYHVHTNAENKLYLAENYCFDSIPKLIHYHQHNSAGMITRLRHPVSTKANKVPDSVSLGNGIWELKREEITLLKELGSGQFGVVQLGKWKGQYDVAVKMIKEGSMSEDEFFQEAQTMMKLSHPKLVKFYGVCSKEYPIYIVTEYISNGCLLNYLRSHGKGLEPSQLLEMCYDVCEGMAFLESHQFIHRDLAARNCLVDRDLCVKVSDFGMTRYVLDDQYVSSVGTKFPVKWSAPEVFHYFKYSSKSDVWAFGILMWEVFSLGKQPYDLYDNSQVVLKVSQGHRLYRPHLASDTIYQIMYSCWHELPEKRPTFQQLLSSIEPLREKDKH

[4] = target: Cyclin-dependent kinase 7 (Homo sapiens, UniProt P50613); assay: Inhibition of full-length recombinant human His-tagged CDK7 expressed in baculovirus expression system by Adapta assay
[5] = target: G protein-coupled receptor kinase 6 (Homo sapiens, UniProt P43250); assay: Inhibition of full-length recombinant human GST-tagged GRK6 expressed in baculovirus expression system by Z'-LYTE assay
[6] = target: Glycogen synthase kinase-3 alpha (Homo sapiens, UniProt P49840); assay: Inhibition of full-length human GST-tagged GSK3A expressed in baculovirus expression system by Z'-LYTE assay
[7] = target: T3, Inhibitor of nuclear factor kappa-B kinase subunit beta (Homo sapiens, UniProt O14920); assay: Inhibition of full-length recombinant human GST-tagged IKK-beta expressed in baculovirus expression system by Z'-LYTE assay
T3 sequence (O14920 whole entry): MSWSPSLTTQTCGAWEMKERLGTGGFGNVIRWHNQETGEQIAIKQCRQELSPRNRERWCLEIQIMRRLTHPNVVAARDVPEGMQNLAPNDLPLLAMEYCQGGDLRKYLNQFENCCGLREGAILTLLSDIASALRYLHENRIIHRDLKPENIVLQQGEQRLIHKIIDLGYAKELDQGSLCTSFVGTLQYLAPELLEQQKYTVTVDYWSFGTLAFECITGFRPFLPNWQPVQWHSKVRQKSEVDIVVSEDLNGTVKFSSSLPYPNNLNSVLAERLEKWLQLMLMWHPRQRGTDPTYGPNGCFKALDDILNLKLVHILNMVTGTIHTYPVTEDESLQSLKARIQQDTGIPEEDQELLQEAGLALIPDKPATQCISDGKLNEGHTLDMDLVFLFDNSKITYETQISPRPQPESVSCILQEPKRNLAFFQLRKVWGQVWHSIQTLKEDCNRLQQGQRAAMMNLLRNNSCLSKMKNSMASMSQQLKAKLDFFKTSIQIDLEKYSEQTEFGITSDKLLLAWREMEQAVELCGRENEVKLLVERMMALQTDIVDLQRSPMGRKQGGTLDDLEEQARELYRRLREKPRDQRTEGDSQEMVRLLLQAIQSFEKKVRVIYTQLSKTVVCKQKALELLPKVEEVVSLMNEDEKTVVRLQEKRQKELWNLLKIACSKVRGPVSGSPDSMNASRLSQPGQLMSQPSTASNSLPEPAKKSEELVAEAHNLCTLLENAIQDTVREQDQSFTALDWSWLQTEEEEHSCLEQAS

[8] = target: Tyrosine-protein kinase JAK2 (Homo sapiens, UniProt O60674); assay: Inhibition of recombinant human GST-tagged cytoplasmic JAK2 (809 to 1153 residues) expressed in baculovirus expression system by Z'-LYTE assay
[9] = target: Serine/threonine-protein kinase 26 (Homo sapiens, UniProt Q9P289); assay: Inhibition of full-length recombinant human GST-tagged MST4 expressed in baculovirus expression system by Z'-LYTE assay
[10] = target: Serine/threonine-protein kinase Nek4 (Homo sapiens, UniProt P51957); assay: Inhibition of full-length recombinant human GST-tagged NEK4 expressed in baculovirus expression system by Z'-LYTE assay
[11] = target: Serine/threonine-protein kinase N1 (Homo sapiens, UniProt Q16512); assay: Inhibition of full-length recombinant human GST-tagged PKN1 expressed in baculovirus expression system by Z'-LYTE assay
Chain of Serine/threonine-protein kinase N1 (Q16512 whole entry): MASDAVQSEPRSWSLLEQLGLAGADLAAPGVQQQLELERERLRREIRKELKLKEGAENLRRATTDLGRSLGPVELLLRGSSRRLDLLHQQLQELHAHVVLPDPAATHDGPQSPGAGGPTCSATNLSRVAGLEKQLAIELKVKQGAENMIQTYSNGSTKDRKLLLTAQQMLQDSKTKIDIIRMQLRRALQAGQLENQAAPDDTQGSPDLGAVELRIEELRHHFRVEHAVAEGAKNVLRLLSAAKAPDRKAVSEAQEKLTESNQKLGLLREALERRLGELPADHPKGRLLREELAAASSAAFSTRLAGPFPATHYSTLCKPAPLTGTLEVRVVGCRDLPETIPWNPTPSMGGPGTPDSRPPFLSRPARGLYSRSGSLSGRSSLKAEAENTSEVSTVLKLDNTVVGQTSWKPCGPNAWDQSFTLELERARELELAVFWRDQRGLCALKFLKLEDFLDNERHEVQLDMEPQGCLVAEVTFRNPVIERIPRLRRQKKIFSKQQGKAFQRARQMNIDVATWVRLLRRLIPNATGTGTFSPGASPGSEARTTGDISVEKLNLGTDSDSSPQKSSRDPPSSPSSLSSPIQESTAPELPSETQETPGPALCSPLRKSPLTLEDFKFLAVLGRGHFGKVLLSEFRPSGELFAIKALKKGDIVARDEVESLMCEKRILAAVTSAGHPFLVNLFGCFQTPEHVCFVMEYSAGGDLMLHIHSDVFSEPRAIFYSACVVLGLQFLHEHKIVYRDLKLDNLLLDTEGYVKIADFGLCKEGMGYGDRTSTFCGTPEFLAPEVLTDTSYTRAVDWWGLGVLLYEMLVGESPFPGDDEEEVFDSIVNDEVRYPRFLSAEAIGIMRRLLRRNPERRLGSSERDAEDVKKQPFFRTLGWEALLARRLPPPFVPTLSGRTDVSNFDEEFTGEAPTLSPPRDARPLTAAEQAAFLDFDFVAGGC

Chain of Tyrosine-protein kinase JAK2 (O60674 whole entry, the tested form may be a part): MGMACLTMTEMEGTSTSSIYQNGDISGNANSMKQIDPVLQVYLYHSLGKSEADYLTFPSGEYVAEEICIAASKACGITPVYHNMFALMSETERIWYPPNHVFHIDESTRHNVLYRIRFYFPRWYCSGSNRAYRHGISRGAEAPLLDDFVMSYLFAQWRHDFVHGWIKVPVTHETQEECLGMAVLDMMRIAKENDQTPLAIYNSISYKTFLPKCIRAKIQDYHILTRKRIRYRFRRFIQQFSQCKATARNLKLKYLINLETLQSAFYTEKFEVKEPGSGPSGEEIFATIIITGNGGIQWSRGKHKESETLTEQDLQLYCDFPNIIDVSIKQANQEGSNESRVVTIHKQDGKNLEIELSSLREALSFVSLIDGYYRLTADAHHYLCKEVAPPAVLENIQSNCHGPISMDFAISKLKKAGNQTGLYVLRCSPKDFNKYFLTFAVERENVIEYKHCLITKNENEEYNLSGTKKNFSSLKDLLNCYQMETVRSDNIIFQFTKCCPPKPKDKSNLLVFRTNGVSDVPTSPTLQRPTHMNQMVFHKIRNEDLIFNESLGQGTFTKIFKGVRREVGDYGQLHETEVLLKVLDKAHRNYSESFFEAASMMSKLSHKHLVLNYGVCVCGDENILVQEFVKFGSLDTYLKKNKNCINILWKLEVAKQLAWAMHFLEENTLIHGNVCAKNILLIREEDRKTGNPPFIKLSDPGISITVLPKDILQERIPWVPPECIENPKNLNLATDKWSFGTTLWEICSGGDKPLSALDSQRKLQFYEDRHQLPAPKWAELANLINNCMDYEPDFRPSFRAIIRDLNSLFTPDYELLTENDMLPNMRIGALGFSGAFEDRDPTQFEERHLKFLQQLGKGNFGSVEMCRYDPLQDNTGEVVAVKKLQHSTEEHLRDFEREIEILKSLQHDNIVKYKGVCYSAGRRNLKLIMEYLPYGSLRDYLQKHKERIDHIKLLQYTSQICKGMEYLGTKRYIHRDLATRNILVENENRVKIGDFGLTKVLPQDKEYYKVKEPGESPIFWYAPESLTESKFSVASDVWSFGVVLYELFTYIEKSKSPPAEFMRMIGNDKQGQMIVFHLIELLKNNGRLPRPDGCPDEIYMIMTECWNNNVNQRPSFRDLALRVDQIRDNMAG
Chain of Serine/threonine-protein kinase 26 (Q9P289 whole entry): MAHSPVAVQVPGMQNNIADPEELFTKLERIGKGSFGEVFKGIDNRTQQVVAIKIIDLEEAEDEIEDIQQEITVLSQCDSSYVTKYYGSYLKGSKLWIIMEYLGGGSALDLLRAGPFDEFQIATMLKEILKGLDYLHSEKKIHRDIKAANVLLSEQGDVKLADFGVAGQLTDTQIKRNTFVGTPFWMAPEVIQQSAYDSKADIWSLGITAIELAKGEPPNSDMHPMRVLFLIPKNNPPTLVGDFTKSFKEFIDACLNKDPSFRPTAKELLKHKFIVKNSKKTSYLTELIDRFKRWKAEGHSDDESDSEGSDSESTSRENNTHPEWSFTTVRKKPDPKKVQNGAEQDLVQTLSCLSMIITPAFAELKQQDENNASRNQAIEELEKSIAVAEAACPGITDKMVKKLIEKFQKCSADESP
Chain of Cyclin-dependent kinase 7 (P50613 whole entry): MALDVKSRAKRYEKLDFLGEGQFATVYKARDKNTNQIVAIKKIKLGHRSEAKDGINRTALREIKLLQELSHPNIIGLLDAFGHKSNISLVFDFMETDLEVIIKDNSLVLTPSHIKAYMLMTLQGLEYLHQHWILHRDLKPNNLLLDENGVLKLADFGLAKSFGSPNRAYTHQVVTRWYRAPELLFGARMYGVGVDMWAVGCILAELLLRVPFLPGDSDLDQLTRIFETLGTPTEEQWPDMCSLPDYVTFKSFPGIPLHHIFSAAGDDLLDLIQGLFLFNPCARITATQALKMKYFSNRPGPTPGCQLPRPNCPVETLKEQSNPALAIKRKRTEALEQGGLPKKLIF
Chain of Glycogen synthase kinase-3 alpha (P49840 whole entry): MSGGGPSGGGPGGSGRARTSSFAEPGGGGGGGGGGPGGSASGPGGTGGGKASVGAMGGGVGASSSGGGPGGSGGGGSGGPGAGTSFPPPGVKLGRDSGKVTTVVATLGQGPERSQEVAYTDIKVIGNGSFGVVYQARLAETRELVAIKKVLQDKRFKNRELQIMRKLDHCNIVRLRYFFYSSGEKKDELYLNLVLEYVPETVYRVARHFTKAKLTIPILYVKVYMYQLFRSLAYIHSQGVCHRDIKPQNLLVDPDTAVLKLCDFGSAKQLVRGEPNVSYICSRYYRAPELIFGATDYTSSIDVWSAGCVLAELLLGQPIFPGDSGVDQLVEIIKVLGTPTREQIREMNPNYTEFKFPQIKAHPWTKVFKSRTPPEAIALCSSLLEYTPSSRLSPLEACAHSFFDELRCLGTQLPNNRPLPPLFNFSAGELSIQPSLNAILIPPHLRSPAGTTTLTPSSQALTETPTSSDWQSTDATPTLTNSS
Chain of G protein-coupled receptor kinase 6 (P43250 whole entry): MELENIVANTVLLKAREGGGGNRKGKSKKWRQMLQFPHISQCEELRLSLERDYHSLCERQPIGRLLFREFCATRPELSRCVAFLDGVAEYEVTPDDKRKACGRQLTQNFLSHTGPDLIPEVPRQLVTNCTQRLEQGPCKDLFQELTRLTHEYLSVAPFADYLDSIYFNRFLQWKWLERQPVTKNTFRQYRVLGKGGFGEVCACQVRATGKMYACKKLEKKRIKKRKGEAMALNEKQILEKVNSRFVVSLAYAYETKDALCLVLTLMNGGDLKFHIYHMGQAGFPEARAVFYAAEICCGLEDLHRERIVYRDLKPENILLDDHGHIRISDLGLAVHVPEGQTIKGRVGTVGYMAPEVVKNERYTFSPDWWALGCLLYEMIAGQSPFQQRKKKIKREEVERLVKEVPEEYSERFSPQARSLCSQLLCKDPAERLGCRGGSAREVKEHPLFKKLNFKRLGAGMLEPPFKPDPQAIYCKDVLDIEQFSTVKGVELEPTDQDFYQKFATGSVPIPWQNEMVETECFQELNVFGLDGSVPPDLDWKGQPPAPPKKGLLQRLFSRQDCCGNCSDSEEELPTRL
Chain of Serine/threonine-protein kinase Nek4 (P51957 whole entry): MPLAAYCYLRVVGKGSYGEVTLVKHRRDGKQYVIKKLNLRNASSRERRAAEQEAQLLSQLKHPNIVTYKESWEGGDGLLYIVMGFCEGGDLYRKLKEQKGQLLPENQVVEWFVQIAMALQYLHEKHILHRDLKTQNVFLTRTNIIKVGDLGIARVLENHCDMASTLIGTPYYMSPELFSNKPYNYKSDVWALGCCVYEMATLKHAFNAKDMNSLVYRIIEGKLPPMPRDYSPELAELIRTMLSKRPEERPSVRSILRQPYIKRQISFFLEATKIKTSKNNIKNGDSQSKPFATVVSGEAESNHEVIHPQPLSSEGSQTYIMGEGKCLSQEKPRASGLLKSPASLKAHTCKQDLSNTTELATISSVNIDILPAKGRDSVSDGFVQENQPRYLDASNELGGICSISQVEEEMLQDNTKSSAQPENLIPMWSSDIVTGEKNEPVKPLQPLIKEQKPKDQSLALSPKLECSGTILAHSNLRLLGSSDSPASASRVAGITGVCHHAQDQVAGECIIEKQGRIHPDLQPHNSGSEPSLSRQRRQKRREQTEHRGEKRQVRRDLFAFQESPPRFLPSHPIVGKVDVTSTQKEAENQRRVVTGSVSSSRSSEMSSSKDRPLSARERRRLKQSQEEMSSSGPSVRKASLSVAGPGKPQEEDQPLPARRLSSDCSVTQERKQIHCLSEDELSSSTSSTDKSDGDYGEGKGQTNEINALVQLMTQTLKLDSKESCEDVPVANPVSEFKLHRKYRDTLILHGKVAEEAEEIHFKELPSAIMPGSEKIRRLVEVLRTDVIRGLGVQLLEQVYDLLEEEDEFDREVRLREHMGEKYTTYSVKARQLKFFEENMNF

For `O=C(NCC(F)(F)F)c1cc(-c2cnn3cc(-c4ccc(OCCN5CCCCC5)cc4)cnc23)cs1`, the IC50 [1] was 50 nM, the Vd [2] was 14.2 L/kg and the IC50 [3] was 410 nM. For the same molecule, the IC50 [4] was 30 nM, the IC50 [5] was 17000 nM and the IC50 [6] was 360 nM. For the same molecule, the IC50 [7] was 55000 nM, the IC50 [8] was 2400 nM and the IC50 [9] was 1100 nM. For the same molecule, the IC50 [10] was 160 nM and the IC50 [11] was 3900 nM.
For `Cn1cc(-c2cnc3c(-c4csc(C(=O)NCC(F)(F)F)c4)cnn3c2)cn1`, the IC50 [1] was 60 nM, the Vd [2] was 0.77 L/kg and the IC50 [3] was 270 nM. The IC50 [4] was 53 nM, the IC50 [5] was > 100000 nM and the IC50 [6] was 130 nM. For the same molecule, the IC50 [7] was > 100000 nM, the IC50 [8] was 1200 nM and the IC50 [9] was 290 nM. The IC50 [10] was 240 nM and the IC50 [11] was 18000 nM.
Molecule `Cn1cc(-c2cnc3c(-c4csc(C(=O)N[C@@H]5CCCC[C@@H]5N)c4)cnn3c2)cn1` (racemic) has an IC50 [1] of 2 nM, a Vd [2] of 29 L/kg and an IC50 [3] of 3.5 nM. For the same molecule, the IC50 [4] was 4.1 nM, the IC50 [5] was 500 nM and the IC50 [6] was 42 nM. The IC50 [7] was > 10000 nM, the IC50 [8] was 64 nM and the IC50 [9] was 6.3 nM. It also gave an IC50 [10] of 48 nM and an IC50 [11] of 250 nM.
For `Cc1sc(C(=O)N[C@@H]2[C@H](N)CCCC2(F)F)cc1-c1cnn2cc(Cl)cnc12`, the IC50 [1] was 280 nM, the Vd [2] was 1.3 L/kg and the IC50 [3] was 9800 nM. For the same molecule, the IC50 [4] was < 10 nM, the IC50 [5] was 1700 nM and the IC50 [6] was 110 nM. For the same molecule, the IC50 [7] was 31000 nM, the IC50 [8] was 4400 nM and the IC50 [9] was 170 nM. For the same molecule, the IC50 [10] was 480 nM and the IC50 [11] was 17000 nM.
